# Data taken from US6093732A, “4-hydroxyquinoline-3-carboxamides and hydrazides as antiviral agents” (Pharmacia & Upjohn Company, priority 1998, dated 2000).
# Target: T1, HCMV polymerase (Human cytomegalovirus, UniProt P08546)
# T1 construct: made in house; host or cells: recombinant baculovirus-infected SF-9 cells
# Assay: HCMV polymerase scintillation proximity assay (SPA), modified version
# Format: biochemical
# Settings: CMV polymerase; Table 1; modified assay with 4.5 mM DTT, compounds in 100% DMSO; read-out: Antiviral Selective Polymerase IC50 Values, CMV
# How it was run: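 SPA measuring 3H-dTTP (90 nM) incorporation on 6 nM biotinylated poly(dA)-oligo(dT) by SF-9-expressed enzyme, pH 7.5 HEPES/KCl/MgCl2/BSA buffer with or without 2 mM CHAPS. Run at 25° C or 37° C, stopped with EDTA while linear (HCMV 30 min); IC50 from linear regression. Modified format adds 4.5 mM DTT, compounds diluted in 100% DMSO.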
# T1 sequence (P08546 whole entry): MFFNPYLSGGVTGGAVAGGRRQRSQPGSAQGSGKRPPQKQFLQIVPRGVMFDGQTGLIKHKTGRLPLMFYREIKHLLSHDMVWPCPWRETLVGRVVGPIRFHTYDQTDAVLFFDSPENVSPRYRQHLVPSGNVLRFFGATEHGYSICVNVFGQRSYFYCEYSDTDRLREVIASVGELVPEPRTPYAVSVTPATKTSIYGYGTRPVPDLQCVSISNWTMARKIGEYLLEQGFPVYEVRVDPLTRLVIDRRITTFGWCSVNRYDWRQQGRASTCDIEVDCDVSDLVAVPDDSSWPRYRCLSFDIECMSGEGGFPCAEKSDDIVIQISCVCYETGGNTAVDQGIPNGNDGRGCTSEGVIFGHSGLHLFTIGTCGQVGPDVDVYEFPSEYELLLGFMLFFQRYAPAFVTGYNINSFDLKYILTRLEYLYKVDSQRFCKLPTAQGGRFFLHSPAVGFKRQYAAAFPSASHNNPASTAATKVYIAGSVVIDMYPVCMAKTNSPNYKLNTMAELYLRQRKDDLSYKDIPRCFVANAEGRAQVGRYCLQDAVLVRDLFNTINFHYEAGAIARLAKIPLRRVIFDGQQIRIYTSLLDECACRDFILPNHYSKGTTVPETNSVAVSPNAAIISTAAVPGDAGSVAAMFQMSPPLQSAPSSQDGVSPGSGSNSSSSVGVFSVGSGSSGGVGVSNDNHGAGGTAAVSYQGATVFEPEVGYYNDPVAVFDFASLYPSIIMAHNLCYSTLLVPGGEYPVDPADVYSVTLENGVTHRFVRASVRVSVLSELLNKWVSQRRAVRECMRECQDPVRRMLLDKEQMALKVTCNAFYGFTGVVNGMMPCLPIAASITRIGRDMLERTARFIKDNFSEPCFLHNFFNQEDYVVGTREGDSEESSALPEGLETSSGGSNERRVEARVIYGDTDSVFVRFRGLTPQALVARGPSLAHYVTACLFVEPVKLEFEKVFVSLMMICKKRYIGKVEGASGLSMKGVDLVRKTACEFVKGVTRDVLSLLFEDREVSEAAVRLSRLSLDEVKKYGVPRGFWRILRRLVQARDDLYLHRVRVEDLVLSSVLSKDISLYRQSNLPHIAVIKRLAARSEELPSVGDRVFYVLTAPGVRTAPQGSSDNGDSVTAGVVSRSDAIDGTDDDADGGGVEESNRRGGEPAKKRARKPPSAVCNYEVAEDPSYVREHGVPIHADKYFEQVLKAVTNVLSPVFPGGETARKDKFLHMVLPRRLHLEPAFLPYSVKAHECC
row,Structure (SMILES),IC50 [µM]
1,"O=C(NCc1ccc(Cl)cc1)c1cnc2c(F)cc(S(=O)(=O)Nc3ccccn3)cc2c1O [Example 200, N-(4-Chlorobenzyl)-8-fluoro-4-hydroxy-6-[(2-pyridinylamino)-sulfonyl]-3-quinolinecarboxamide]",38.8
2,"CN1CCCC1CCNS(=O)(=O)c1cc(F)c2ncc(C(=O)NCc3ccc(Cl)cc3)c(O)c2c1 (stereo not drawn) [Example 202, N-(4-chlorobenzyl)-8-fluoro-4-hydroxy-6-({[2-(1-methyl-2-pyrrolidinyl)ethyl]amino}sulfonyl)-3-quinolinecarboxamide]",≥ 50
3,"O=C(NCc1ccc(Cl)cc1)c1cnc2c(F)cc(S(=O)(=O)NCCN3CCCC3)cc2c1O [Example 203, N-(4-chlorobenzyl)-8-fluoro-4-hydroxy-6-({[2-(1-pyrrolidinyl)ethyl]amino}sulfonyl)-3-quinolinecarboxamide]",38.8
4,"O=C(NCc1ccc(Cl)cc1)c1cnc2c(F)cc(S(=O)(=O)NCc3ccco3)cc2c1O [Example 204, N-(4-chlorobenzyl)-8-fluoro-6-{[(2-furylmethyl)amino]sulfonyl}-4-hydroxy-3-quinolinecarboxamide]",13.8
5,"O=C(NCc1ccc(Cl)cc1)c1cnc2c(F)cc(S(=O)(=O)NCCCNC3CCCCC3)cc2c1O [Example 205, N-(4-chlorobenzyl)-6-({[3-(cyclohexylamino)propyl]amino}sulfonyl)-8-fluoro-4-hydroxy-3-quinolinecarboxamide]",≥ 50
6,"O=C(NCc1ccc(Cl)cc1)c1cnc2c(F)cc(S(=O)(=O)NCCc3c[nH]cn3)cc2c1O [Example 207, N-(4-chlorobenzyl)-8-fluoro-4-hydroxy-6-({[2-(1H-imidazol-4-yl)ethyl]amino}sulfonyl)-3-quinolinecarboxamide]",14.4
7,"O=C(NCc1ccc(Cl)cc1)c1cnc2c(F)cc(S(=O)(=O)NCC3CCCO3)cc2c1O (stereo not drawn) [Example 208, N-(4-chlorobenzyl)-8-fluoro-4-hydroxy-6-{[(tetrahydro-2-furanylmethyl)amino]sulfonyl}-3-quinolinecarboxamide]",41.6
8,"O=C(NCc1ccc(Cl)cc1)c1cnc2c(F)cc(S(=O)(=O)NCc3ccc4c(c3)OCO4)cc2c1O [Example 212, 6-{[(1,3-benzodioxol-5-ylmethyl)amino]sulfonyl}-N-(4-chlorobenzyl)-8-fluoro-4-hydroxy-3-quinolinecarboxamide]",14.5
9,"O=C(NCc1ccc(Cl)cc1)c1cnc2c(F)cc(S(=O)(=O)NCCN3CCOCC3)cc2c1O [Example 213, N-(4-chlorobenzyl)-8-fluoro-4-hydroxy-6-{[(2-morpholinoethyl)amino]sulfonyl}-3-quinolinecarboxamide]",18.9
10,"O=C(NCc1ccc(Cl)cc1)c1cnc2c(F)cc(S(=O)(=O)NCCCN3CCOCC3)cc2c1O [Example 214, N-(4-chlorobenzyl)-8-fluoro-4-hydroxy-6-{[(3-morpholinopropyl)amino]sulfonyl}-3-quinolinecarboxamide]",29.7
11,"O=C(NCc1ccc(Cl)cc1)c1cnc2c(F)cc(S(=O)(=O)NCc3ccccn3)cc2c1O [Example 216, N-(4-chlorobenzyl)-8-fluoro-4-hydroxy-6-{[(2-pyridinylmethyl)amino]sulfonyl}-3-quinolinecarboxamide]",18.7
12,"O=C(NCc1ccc(Cl)cc1)c1cnc2c(F)cc(S(=O)(=O)NCCc3ccccn3)cc2c1O [Example 217, N-(4-chlorobenzyl)-8-fluoro-4-hydroxy-6-({[2-(2-pyridinyl)ethyl]amino}sulfonyl)-3-quinolinecarboxamide]",15.2
13,"O=C(NCc1ccc(Cl)cc1)c1cnc2c(F)cc(S(=O)(=O)NCc3cccnc3)cc2c1O [Example 218, N-(4-chlorobenzyl)-8-fluoro-4-hydroxy-6-{[(3-pyridinylmethyl)amino]sulfonyl}-3-quinolinecarboxamide]",17.6
14,"O=C(NCc1ccc(Cl)cc1)c1cnc2c(F)cc(S(=O)(=O)NCc3ccncc3)cc2c1O [Example 219, N-(4-chlorobenzyl)-8-fluoro-4-hydroxy-6-{[(4-pyridinylmethyl)amino]sulfonyl}-3-quinolinecarboxamide]",11
15,"COc1ccc(CNS(=O)(=O)c2cc(F)c3ncc(C(=O)NCc4ccc(Cl)cc4)c(O)c3c2)cc1 [Example 221, N-(4-chlorobenzyl)-8-fluoro-4-hydroxy-6-{[(4-methoxybenzyl)amino]sulfonyl}-3-quinolinecarboxamide]",12.5
16,"CC(C)(C)CNS(=O)(=O)c1cc(F)c2ncc(C(=O)NCc3ccc(Cl)cc3)c(O)c2c1 [Example 222, N-(4-chlorobenzyl)-8-fluoro-4-hydroxy-6-[(neopentylamino)sulfonyl]-3-quinolinecarboxamide]",11.5
17,"CC(O)CNS(=O)(=O)c1cc(F)c2ncc(C(=O)NCc3ccc(Cl)cc3)c(O)c2c1 (stereo not drawn) [Example 223, N-(4-chlorobenzyl)-8-fluoro-4-hydroxy-6-{[(2-hydroxypropyl)amino]sulfonyl}-3-quinolinecarboxamide]",14.5
18,"O=C(NCc1ccc(Cl)cc1)c1cnc2c(F)cc(S(=O)(=O)NCC(O)CO)cc2c1O (stereo not drawn) [Example 224, N-(4-chlorobenzyl)-6-{[(2,3-dihydroxypropyl)amino]sulfonyl}-8-fluoro-4-hydroxy-3-quinolinecarboxamide]",21.6
19,"O=C(O)CCCCCCCCCCNS(=O)(=O)c1cc(F)c2ncc(C(=O)NCc3ccc(Cl)cc3)c(O)c2c1 [Example 226, 11-{[(3-{[(4-chlorobenzyl)amino]carbonyl}-8-fluoro-4-hydroxy-6-quinolinyl)sulfonyl]amino}undecanoic acid]",18.5
20,"CC(=O)NCCNS(=O)(=O)c1cc(F)c2ncc(C(=O)NCc3ccc(Cl)cc3)c(O)c2c1 [Example 227, 6-({[2-(acetylamino)ethyl]amino}sulfonyl)-N-(4-chlorobenzyl)-8-fluoro-4-hydroxy-3-quinolinecarboxamide]",26.7
21,"O=C(NCc1ccc(Cl)cc1)c1cnc2c(F)cc(S(=O)(=O)NCCOCCO)cc2c1O [Example 228, N-(4-chlorobenzyl)-8-fluoro-4-hydroxy-6-({[2-(2-hydroxyethoxy)ethyl]amino}sulfonyl)-3-quinolinecarboxamide]",44.3
22,"O=C(NCc1ccc(Cl)cc1)c1cnc2c(F)cc(S(=O)(=O)NCCO)cc2c1O [Example 229, N-(4-chlorobenzyl)-8-fluoro-4-hydroxy-6-{[(2-hydroxyethyl)amino]sulfonyl}-3-quinolinecarboxamide]",10.7
23,"C#CCNS(=O)(=O)c1cc(F)c2ncc(C(=O)NCc3ccc(Cl)cc3)c(O)c2c1 [Example 232, N-(4-chlorobenzyl)-8-fluoro-4-hydroxy-6-[(2-propynylamino)sulfonyl]-3-quinolinecarboxamide]",23.4

# More lines, in order of falling IC50, values ahead:
row,IC50 [µM],Structure (SMILES)
1,10.7,"O=C(NCc1ccc(Cl)cc1)c1cnc2c(F)cc(S(=O)(=O)NCc3ccc(Cl)cc3)cc2c1O [Example 220, N-(4-chlorobenzyl)-6-{[(4-chlorobenzyl)amino]sulfonyl}-8-fluoro-4-hydroxy-3-quinolinecarboxamide]"
2,9.6,"O=C(NCc1ccc(Cl)cc1)c1cnc2c(F)cc(S(=O)(=O)NCCc3ccccc3)cc2c1O [Example 230, N-(4-chlorobenzyl)-8-fluoro-4-hydroxy-6-[(phenethylamino)sulfonyl]-3-quinolinecarboxamide]"
3,8.6,"O=C(NCc1ccc(Cl)cc1)c1cnc2c(F)cc(S(=O)(=O)NCc3cccs3)cc2c1O [Example 209, N-(4-chlorobenzyl)-8-fluoro-4-hydroxy-6-{[(2-thienylmethyl)amino]sulfonyl}-3-quinolinecarboxamide]"
4,8.6,"O=C(NCc1ccc(Cl)cc1)c1cnc2c(F)cc(S(=O)(=O)NCCNc3ccc([N+](=O)[O-])cn3)cc2c1O [Example 215, N-(4-chlorobenzyl)-8-fluoro-4-hydroxy-6-[({2-[(5-nitro-2-pyridinyl)amino]ethyl}amino)sulfonyl]-3-quinolinecarboxamide]"
5,8.5,"O=C(NCc1ccc(Cl)cc1)c1cnc2c(F)cc(S(=O)(=O)NCC(c3ccccc3)c3ccccc3)cc2c1O [Example 225, N-(4-chlorobenzyl)-6-{[(2,2-diphenylethyl)amino]sulfonyl}-8-fluoro-4-hydroxy-3-quinolinecarboxamide]"
6,8.3,"O=C(NCc1ccc(Cl)cc1)c1cnc2c(F)cc(S(=O)(=O)NCCc3ccc(Cl)cc3)cc2c1O [Example 231, N-(4-chlorobenzyl)-6-{[(4-chlorophenethyl)amino]sulfonyl}-8-fluoro-4-hydroxy-3-quinolinecarboxamide]"
7,6,"O=C(NCc1ccc(Cl)cc1)c1cnc2c(F)cc(S(=O)(=O)NCC3CCCCC3)cc2c1O [Example 201, N-(4-chlorobenzyl)-6-{[(cyclohexylmethyl)amino]sulfonyl}-8-fluoro-4-hydroxy-3-quinolinecarboxamide]"
8,5.1,"COc1ccc2[nH]cc(CCNS(=O)(=O)c3cc(F)c4ncc(C(=O)NCc5ccc(Cl)cc5)c(O)c4c3)c2c1 [Example 211, N-(4-chlorobenzyl)-8-fluoro-4-hydroxy-6-({[2-(5-methoxy-1H-indol-3-yl)ethyl]amino}sulfonyl)-3-quinolinecarboxamide]"
9,4.8,"O=C(NCc1ccc(Cl)cc1)c1cnc2c(F)cc(S(=O)(=O)NCCc3c[nH]c4ccccc34)cc2c1O [Example 210, N-(4-chlorobenzyl)-8-fluoro-4-hydroxy-6-({[2-(1H-indol-3-yl)ethyl]amino}sulfonyl)-3-quinolinecarboxamide]"
10,2.4,"O=C(NCc1ccc(Cl)cc1)c1cnc2c(F)cc(S(=O)(=O)NCc3cccc4ccccc34)cc2c1O [Example 206, N-(4-chlorobenzyl)-8-fluoro-4-hydroxy-6-{[(1-naphthylmethyl)amino]sulfonyl}-3-quinolinecarboxamide]"
